This is an account of results in patent US11644466B2, “Methods for treating, preventing and predicting risk of developing breast cancer” (Dana-Farber Cancer Institute, Inc., priority 2012, dated 2023).

The experiment deals with normal human breast tissues (breast epithelial cells). Kind of experiment: Tissue explant (tissue slice) culture of normal breast tissue with pathway inhibitors, hormones or tamoxifen: frequency of BrdU+, Ki67+ and p27+ cells. The class given is cell-based. The note with it: for number of cells incorporating BrdU: BrdU pulse 5 hrs; for frequency (numbers) of p27+ cells: normal breast tissue explant / tissue slice culture with inhibitor or tamoxifen, 8-10 days, FIG. 24, FIG. 26C.

The mark [1] stands for this setting: normal breast tissue explant culture with inhibitor for 8-10 days, versus control, FIG. 24.

“Also recorded” adds a separate entry of the source.

Protocol: The multicolor immunofluorescence for p27 and Ki67 was performed by incubating the samples with monoclonal antibody anti-p27 (1:100 dilution) and polyclonal antibody anti-Ki67 (1:50 dilution) for one hour at room temperature followed by goat anti-mouse IgG1 Alexa 555-conjugated (Invitrogen, 1:100 dilution, for detection of p27) and goat anti-rabbit Alexa 488-conjugated (Invitrogen, 1:100 dilution, for detection of Ki67) for 30 minutes at room temperature. Multicolor immunofluorescence for pSMAD2 (1:50 dilution), pEGFR (1:50 dilution) and Axin2 (1:20 dilution) were performed by incubation for 2 h at room temperature or overnight at 4° C. followed by secondary antibody Rabbit Alexa 488 conjugated (Invitrogen, 1:100 dilution for pSMAD2 and pEGFR) or mouse IgG1 Alexa-488 conjugated (Invitrogen 1:100 dilution) for Axin2 for 30 minutes at room temperature.
Scoring for the expression of each marker was done as follows: p27 fluorescence intensity was scored in the nuclei of 20 randomly selected cells using the ImageJ 1.43r software; Sox17 and COX2 expression was inferred by the combination of two variables: 1) the percentage cells expressing each marker, and 2) the intensity of each marker transformed into a categorical variable based on 0 no expression, 1 weak expression, 2 moderate expression and 3 high expression; the percentage of p27+, Ki67+ and BrdU+ cells was estimated by counting an average of 1000 cells/sample in the case of the mammary epithelium for premenopausal, postmenopausal and high-low density cases, and an average of 2,000 cells in the case of the tissue slices cultures. % of pSMAD2+ cells was estimated by counting an average of 600 cells/sample. For pEGFR and Axin2 fluorescence intensity measurement, mean fluorescence intensity was measured using Image J 1.43r software by counting an average of 600 cells/sample corrected by area and subtracting the average of background fluorescence intensity. […] For p27 and AR staining, p27 (1:100 dilution and AR (1:30 dilution) antibodies were incubated overnight at 40 C followed by incubation at RT for 1 h with subsequent staining by goat anti-mouse IgG1 Alexa 555-conjugated (Invitrogen, 1:100 dilution, for detection of p27) and anti-rabbit IgG Alexa 488-conjugated (Invitrogen, 1:80 dilution). Percentage of p27+, AR+, ER+ cells was estimated by counting 500-1000 cells/sample. Nuclear staining with DAPI and multiple fluorescence images from each section were acquired with 40× plan apo objective, following procedure described above.
Normal human breast tissues were collected from reduction mammoplasties, transported in ice-cold DMEM-F12 medium, and processed within 24 hrs. For organ cultures, thin (˜1 mm thick) slices of tissue were cut from epithelium-enriched areas and cultured for 8 days in 6-well plates using co-culture inserts to optimize the tissue/medium contact surface and changing medium (2 ml/well) every 24 hrs. […] Following 8 days of culture, labeled tissue slices were pulse with bromo-deoxy-uridine (30 μM final concentration) for 5 hrs before fixing the tissue in buffered formalin at room temperature for 24 hrs followed by embedding in paraffin. Experiments were performed in triplicates using tissue from different regions of the same breast, uncultured tissue and tissue cultured without any drugs as controls.

For `CC1=C2C[C@H]3[C@@H](CC=C4C[C@@H](O)CC[C@@]43C)[C@@H]2CC[C@]12O[C@@H]1C[C@H](C)CN[C@H]1[C@H]2C` [Hh, cyclopamine], the “number of cells incorporating BrdU” value under setting [1] was “significantly (p<0.05) decreased”. On to `COc1cc2ncnc(Nc3cccc(Cl)c3)c2cc1OC` [EGFR, tyrphostin AG1478], for which, under setting [1], the “number of cells incorporating BrdU” value is reported as “significantly (p<0.05) decreased” and the “fraction of Ki67+ cells” value is recorded as “decreased”.

For the molecule `C[C@]12CC[C@@H]3c4ccc(O)cc4CC[C@H]3[C@@H]1CC[C@@H]2O` [estrogen, estradiol], the “numbers of p27+ cells” value (tissue slices treated with concentrations of estrogen present in follicular phase (0.5 μM of estradiol for 8 days), FIG. 26B) is “high”.

Consider `c1ccc(-c2nn3c(c2-c2ccnc4cc(OCCN5CCOCC5)ccc24)CCC3)nc1` [TGFBR inhibitor, LY2109761], for which the “frequency (numbers) of p27+ cells” value was “most pronouncedly decreased; also recorded: decreased”. For the same molecule, the “number of cells incorporating BrdU” value under setting [1] was “opposite effect”. For the molecule `COc1cc([C@@H]2c3cc4c(cc3[C@H](O)[C@H]3COC(=O)[C@@H]23)OCO4)cc(OC)c1OC` [IGFR, picropodophylotoxin], the “frequency (numbers) of p27+ cells” value is given as “most pronouncedly decreased; also recorded: decreased”. The “number of cells incorporating BrdU” value under setting [1] was “significantly (p<0.05) decreased”. As to `CC/C(=C(\c1ccccc1)c1ccc(OCCN(C)C)cc1)c1ccccc1` [tamoxifen], the “frequency (numbers) of p27+ cells” value is recorded as “high”.
